What all share (assay type): cell-based, human
Test [1] concerns in vitro hNMJ culture (myotubes). The experiment in a line: Calcium imaging of in vitro hNMJ. The note with it: day 20 of NMJ differentiation, Ca imaging at five ROIs. How it is done:
MyoD-201B7 cells were seeded at a density of 2.2×10^4 cells/well and differentiated into NMJs in a Costar 96-well black-wall/clear-bottom plate. On day 20, the growth medium was removed, and 100 μL Fluo-8 recording medium was added to the cells at 37° C. for 1 hour. The cells were washed twice with PBS and then imaged on In Cell Analyzer 2000. The fluorescence intensity was expressed as the F/F0 ratio.
MyoD-201B7 cells were seeded onto a Matrigel-coated, 96-well black-wall/clear-bottom plate at a density of 2.2×10^4 cells/well. Half of the medium in each well was exchanged every day until the cultures started contracting. The growth medium was removed, and cells were loaded with 100 μL Fluo-8 recording medium at 37° C. for 1 hour. The cells were washed twice with PBS and then the differentiation medium was added to the wells. Ca oscillations were monitored with the FDSS microplate reader, data points were collected at 1-minute intervals, and the data points were analyzed using FDSS software for frequency and amplitude quantification.

The test system is the same in test [2]. Description: Motion vector analysis of myotube contraction in in vitro hNMJ. The note with it: day 20 of NMJ differentiation. How it is done: (§1) MyoD-201B7 strain was subjected to myogenic differentiation according to the procedure described in Tanaka et al., PLOS ONE 2013. Specifically, MyoD-201B7 cells were seeded on a Matrigel-coated plate, and myogenic differentiation was induced by adding 1 μg/mL of doxycycline to myogenic differentiation medium (10% KSR+αMEM). Ten days after the addition of doxycycline, neural differentiation was induced by changing the medium to Neurobasal medium supplemented with neurotrophic factors (BDNF, GDNF, and NT3; 10 ng/ml each, R&D Systems). The medium was then replaced every 3 to 4 days to continue culturing.
Using α7s ILCE-7S (Sony Corporation), phase-contrast images using a red-filtered optical source and fluorescence (Fluo8, green) were continuously captured at 15 fps. Using the SI8000 Cell Motion Imaging System (Sony Corporation), which provides motion vector analysis based on the block matching method, motion quantification with the red-separated images in regions of interest (ROIs) and brightness analysis with the green-separated images were performed.
Both moving image capture and motion analysis were performed at 38 fps using the SI8000 Cell Motion Imaging System (Sony Corporation).

For a further test, the system named is in vitro hNMJ culture. The experiment in a line: Contribution of agrin to the in vitro NMJ system (NMJ area, TEM). The conditions noted are these: long-term culture. As for the experimental part: as §1
NMJ cultures were pre-fixed in 2% paraformaldehyde and 2% glutaraldehyde in 0.1 M phosphate buffer (pH 7.4) at 4° C. overnight. Post-fixation was done in 1% osmium tetroxide solution for 1 hour at room temperature. The samples were dehydrated in ethanol (30%, 50%, 70%, 90%, 95%, and 100%) and embedded in Epon resin. Ultrathin sections (80 nm) were cut and stained with uranyl acetate and alkaline lead citrate. The specimens were examined with a transmission electron microscope (H-7650, Hitachi, Ltd.).
Image analysis and quantification were performed by MetaMorph software (Molecular Devices, LLC. USA).

Test [3] relates to hNMJ culture expressing ChR2-EYFP. The experiment in a line: Motion analysis of in vitro hNMJ culture by photoactivation (ChR2-EYFP). The conditions noted are these: day 100 of NMJ differentiation. How it is done: The plasmid deposited at Addgene by Karl Deisseroth was purchased and used as a plasmid containing a photoactivation domain (pLenti-Synapsin-hChR2 (H134R)-EYFP-WPRE, Addgene plasmid number 20945). The lentivirus transduction system (ViraPower hiperform lentivirus expression system, Invitrogen) was used to transduce the target gene into neural cells. NMJ cultures were treated with virus-containing medium at 37° C. for 48 hours with 5% CO2. After virus infection, the medium was removed and the Neurobasal medium was added for target gene expression. The medium was changed every 3 to 4 days. EYFP expression was examined by confocal microscopy with proper optical settings. Photoactivation was performed with at 488-nm laser wavelength. In addition to EYFP signals, bright-field images were captured simultaneously for muscle movement analysis.

Entries after “also recorded” stand apart in the source; their conditions may differ.

In the case of `[Ca+2]` [Ca^2+, calcium], the “excitation of myotubes (transient Ca2+ elevation)” value in test [1] is “enhanced”. For the compound `O=C1CN(/N=C/c2ccc(-c3ccc([N+](=O)[O-])cc3)o2)C(O)=N1` [dantrolene], the “spontaneous synchronized contraction-like movement of myotubes” value in test [2] is on record as “inhibited”. On to agrin, for which, in the test with in vitro hNMJ culture, the “area of the NMJ (ratio of NMJ region)” value was “increased”; the “morphology of myotubes and axon terminals by TEM” value is on record as “Myotube was well confined at fold of junction that bounds axon terminal”. On to curare, for which the “excitation of myotubes (transient Ca2+ elevation)” value in test [1] is recorded as “reduced; also recorded: stopped”. For the same compound, the “muscle contraction triggered by blue light (488 nm)” value in test [3] is reported as “inhibited”.
